Laboratory results as given in PMC12300381, “Synthesis, Biological Evaluation, and In Silico Characterization of Novel Imidazothiadiazole–Chalcone Hybrids as Multi-Target Enzyme Inhibitors” (Pharmaceuticals, 2025).

Tests used:
Format in all cases: biochemical
Settings in all cases: for IC50: Table 2
hCA II = hCA II (Homo sapiens, UniProt P00918); test: hCA II esterase activity inhibition (Verpoorte method, p-nitrophenylacetate)
Description: (§1) The activities of the CA isoenzymes were measured in accordance with Verpoorte et al.’s previously described methodology. […] There was 400 µL of Tris–HCl buffer (pH 7.4), 360 µL of PNA (3.0 mM), 220 µL of H2O, and 20 µL of purified hCA isoenzyme in the reaction mixture. The identical cuvette was prepared without the enzyme in order to obtain a control measurement. The standard protein was bovine serum albumin.
(§2) To determine the IC50 values of the tested compounds, enzyme activity measurements were conducted at five to six different inhibitor concentrations. Percent activity values were calculated for each dose, taking into account the compounds’ molecular weights and dilution factors.
The IC50 study was completed prior to the Kᵢ determination. For the Kᵢ analysis, three selected concentrations of each inhibitor were used alongside a control (uninhibited) reaction. Enzyme activity data were converted to 1/V values and plotted against 1/[S] to generate Lineweaver–Burk plots.
(§3) Kᵢ values and standard deviations were calculated based on the type of inhibition (competitive or non-competitive), as inferred from the intersection pattern of the Lineweaver–Burk lines. These kinetic parameters allowed for further insight into the binding affinities and inhibition mechanisms of the compounds.

AChE = target: T1, AChE (Electrophorus electricus, UniProt O42275); test: biochemical
T1 construct: purchased Sigma-Aldrich Chemie, St. Louis, MO, USA C2888-500UN
T1 sequence (O42275 24-633): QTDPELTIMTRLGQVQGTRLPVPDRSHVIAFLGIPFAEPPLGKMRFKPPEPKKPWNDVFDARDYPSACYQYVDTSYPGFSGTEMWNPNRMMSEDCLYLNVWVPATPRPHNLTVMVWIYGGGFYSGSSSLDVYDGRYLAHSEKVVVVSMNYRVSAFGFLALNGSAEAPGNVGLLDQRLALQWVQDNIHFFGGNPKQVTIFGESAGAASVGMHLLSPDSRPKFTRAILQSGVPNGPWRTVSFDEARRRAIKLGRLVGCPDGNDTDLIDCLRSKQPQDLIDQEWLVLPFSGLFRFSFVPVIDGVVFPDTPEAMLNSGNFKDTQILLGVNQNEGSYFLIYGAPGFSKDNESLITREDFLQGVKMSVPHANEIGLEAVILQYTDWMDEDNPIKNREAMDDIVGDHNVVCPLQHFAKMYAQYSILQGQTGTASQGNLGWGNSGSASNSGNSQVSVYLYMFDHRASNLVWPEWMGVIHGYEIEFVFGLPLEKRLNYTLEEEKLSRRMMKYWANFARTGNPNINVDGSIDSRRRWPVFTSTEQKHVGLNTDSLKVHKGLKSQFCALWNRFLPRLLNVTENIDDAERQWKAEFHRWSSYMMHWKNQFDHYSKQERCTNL
Description: (§4) The previously published Ellman’s technique was used to measure the BChE and AChE activities. AChE (C2888-500UN) from Electrophorus electricus and BChE (C1057-1KU), extracted from equine serum, were both obtained from Sigma-Aldrich Chemie, St. Louis, MO, USA. The BChE/AChE activities were measured using 5,5′-dithiobis(2-nitrobenzoic acid) (DTNB) and butyrylthiocholine iodide (BChI)/[…] (AChI). In short, […] of the sample solutions with varying concentrations was dissolved in deionized water along with 100 µL of buffer (Tris–HCl, 1.0 M, pH 8.0). […] A fraction of DTNB (50 µL, 0.5 mM) was added following incubation. Finally, 50 µL of BChI/AChI (10/10 mM) was added to initiate the reaction. […] All enzymatic activity determination solutions, except AChE/BChE, were included in the negative control.
as §2
(§5) The IC50 study was completed prior to the Kᵢ determination. For the Kᵢ analysis, three selected concentrations of each inhibitor were used alongside a control (uninhibited) reaction.
as §3

BChE = target: T2, BChE (Equus caballus, UniProt P81908); test: biochemical
T2 construct: BChE (C1057-1KU), extracted from equine serum; purchased Sigma-Aldrich Chemie, St. Louis, MO, USA C1057-1KU; host or cells: equine serum
T2 sequence (P81908 whole entry): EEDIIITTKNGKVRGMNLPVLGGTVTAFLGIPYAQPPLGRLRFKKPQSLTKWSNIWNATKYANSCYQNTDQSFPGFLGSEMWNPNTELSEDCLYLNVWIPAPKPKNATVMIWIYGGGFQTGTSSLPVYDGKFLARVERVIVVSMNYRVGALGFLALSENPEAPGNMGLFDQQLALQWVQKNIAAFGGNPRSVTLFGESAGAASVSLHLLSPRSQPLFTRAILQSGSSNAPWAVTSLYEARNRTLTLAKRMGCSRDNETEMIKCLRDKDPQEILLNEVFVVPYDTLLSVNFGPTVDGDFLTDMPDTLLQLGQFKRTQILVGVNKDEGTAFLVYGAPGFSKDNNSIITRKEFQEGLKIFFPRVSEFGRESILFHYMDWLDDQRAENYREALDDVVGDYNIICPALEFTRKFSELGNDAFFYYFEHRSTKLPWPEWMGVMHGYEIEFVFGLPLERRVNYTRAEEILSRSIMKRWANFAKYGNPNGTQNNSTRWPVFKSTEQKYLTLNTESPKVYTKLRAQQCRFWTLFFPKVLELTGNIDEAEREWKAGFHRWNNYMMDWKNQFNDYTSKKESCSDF
Description: as §4, §2, §5, §3

hCA I = hCA I (Homo sapiens, UniProt P00915); test: hCA I esterase activity inhibition (Verpoorte method, p-nitrophenylacetate)
hCA I, sequence (P00915 whole entry): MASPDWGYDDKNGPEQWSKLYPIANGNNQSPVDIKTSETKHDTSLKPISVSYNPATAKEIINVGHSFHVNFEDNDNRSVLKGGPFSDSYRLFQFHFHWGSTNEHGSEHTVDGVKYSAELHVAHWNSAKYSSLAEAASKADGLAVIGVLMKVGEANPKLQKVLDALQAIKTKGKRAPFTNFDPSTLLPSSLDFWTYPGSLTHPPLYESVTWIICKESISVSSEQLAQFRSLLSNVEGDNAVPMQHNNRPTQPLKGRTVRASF
Description: as §1, §2, §5, §3

| SMILES | Ki (hCA II; Lineweaver-Burk plots) | inhibition type, hCA II (hCA II; Lineweaver-Burk plots) | IC50 (hCA II) | Ki (AChE; Lineweaver-Burk plots) | IC50 (AChE) | Ki (BChE; Lineweaver-Burk plots) | IC50 (BChE) | Ki (hCA I; Lineweaver-Burk plots) | IC50 (hCA I) | inhibition type, AChE (AChE; Lineweaver-Burk plots) | inhibition type, BChE (BChE; Lineweaver-Burk plots) | inhibition type, hCA I (hCA I; Lineweaver-Burk plots) |
| --- | --- | --- | --- | --- | --- | --- | --- | --- | --- | --- | --- | --- |
| COc1ccc(C(=O)/C=C/c2c(-c3ccccc3)nc3sc(SCc4ccc(F)cc4)nn23)cc1 [8c, (E)-3-(2-((4-Fluorobenzyl)thio)-6-phenylimidazo[2,1-b][1,3,4]thiadiazol-5-yl)-1-(4-methoxyphenyl)prop-2-en-1-one] | 36.1 ± 5.36 nM | non-competitive | 30.2 nM | 11.3 ± 1.02 nM | 13 nM | 1.56 ± 0.06 nM | 2.03 nM |  |  |  |  |  |
| COc1ccc(C(=O)/C=C/c2c(-c3ccccc3)nc3sc(SCc4ccccc4)nn23)cc1 [8a, (E)-3-(2-(Benzylthio)-6-phenylimidazo[2,1-b][1,3,4]thiadiazol-5-yl)-1-(4-methoxyphenyl)prop-2-en-1-one] | 49.3 ± 5.03 nM |  | 41.1 nM | 3.86 ± 0.2 nM | 4.36 nM | 1.01 ± 0.08 nM | 1.37 nM | 81.2 ± 4.36 nM | 73 nM | competitive | competitive |  |
| O=C(/C=C/c1c(-c2ccccc2)nc2sc(SCc3ccc(F)cc3)nn12)c1ccc(Cl)cc1 [8d, (E)-1-(4-Chlorophenyl)-3-(2-((4-fluorobenzyl)thio)-6-phenylimidazo[2,1-b][1,3,4]thiadiazol-5-yl)prop-2-en-1-one] | 39.6 ± 4.91 nM |  | 34.1 nM | 7.98 ± 0.6 nM | 9.3 nM | 1.78 ± 0.12 nM | 1.98 nM | 45.1 ± 3.91 nM | 39.1 nM |  |  | non-competitive |
| O=C(/C=C/c1c(-c2ccccc2)nc2sc(SCc3ccccc3)nn12)c1ccc(Cl)cc1 [8b, (E)-3-(2-(Benzylthio)-6-phenylimidazo[2,1-b][1,3,4]thiadiazol-5-yl)-1-(4-chlorophenyl)prop-2-en-1-one] | 52.5 ± 6.24 nM |  | 49.3 nM | 6.01 ± 0.35 nM | 6.77 nM | 1.7 ± 0.1 nM | 1.95 nM | 78 ± 5.48 nM | 64.4 nM |  |  |  |
